From patent US20230133243A1, “CONDITIONING REGIMENS FOR IN VIVO GENE THERAPY” (Fred Hutchinson Cancer Center, priority 2020, published 2023)

Tests used:
[1] = Tolerability, physical health, hematology and blood chemistry in the NHP in vivo HSC gene therapy study; parameters: species or system rhesus macaques; details: NHP #2, given through a gastric catheter over 5 days; day 3 after HDAd injection
Description: NHP #1 received a donor vector containing two payload modules: i) a transposon module for random integration into host cell genomes of a human γ-globin gene operably linked with a mini-β-globin LCR, together with an MGMT^P140K selection marker operably linked with an EF1α promoter, and ii) a CRISPR/Cas9 module for CRISPR/Cas9-mediated reactivation of endogenous rhesus γ-globin expression (FIG. 8B). This combination donor vector was co-injected with a support vector that expresses an activity-enhanced Sleeping Beauty transposase (SB100x) (HDAd-SB), activity of which mediates γ-globin gene addition by integration of the transposon into host cell genomes and triggers the destruction of the CRISPR/Cas9 module thus restricting the duration of the CRISPR/Cas9 system's expression and activity (FIG. 8B). […] The vector injected into NHP #3 was similar to the NHP #1 vector but encoded rhesus γ-globin instead of human γ-globin to minimize immune responses against transgene products in the NHP (FIG. 8D).
None of the three animals had detectable anti-vector antibodies at the time of enrollment. Unexpectedly, NHP #1 acquired antibodies during quarantine (titer 1:680). NHP #1 and #3 were monitored for 6 months. […] Despite this, a set of relevant data could be collected from this animal. […]

human MGMT^P140K = assay: Anti-human MGMT^P140K immune responses under adaptive immunosuppression; type: in vivo, rhesus macaques; details: fully immunocompetent animals
Description: Serum antibody (IgG and IgM) titers against recombinant human MGMT protein in NHP #3 (FIG. 18A) and NHP #1 (FIG. 18B).
To suppress adaptive immune responses, NHP #1 received daily tacrolimus/sirolimus/MMF. […] For NHP #3, it was therefore decided to administer only tacrolimus (SC) as this had been sufficient in myelo-ablated/-conditioned rhesus macaques.

IL-6 = assay: Rhesus serum cytokine levels by cytometric bead array after IV HDAd5/35++ (IL-6); type: in vivo, rhesus macaques; details: NHPs; measured by IL-6 and/or TNF levels
Description: FIGS. 12A-12E. […] (FIGS. 12A-12C) Serum IL-6. (FIGS. 12D, 12E) Serum TNFα.
FIG. 29. […] Serum IL-6 (pg/mL) levels are shown for NHP #4. […] Arrows indicate administration of adenoviral vector.
FIG. 31. […] Serum IL-6 (pg/mL) levels are shown for NHP #5. […] Arrows indicate administration of adenoviral vector.
Serum cytokines returned back to baseline by 24 hrs.

Molecule | outcome of overdose [1] | control of anti-human MGMT^P140K antibodies (and T-cell responses) (human MGMT^P140K) | innate immune response to HDAd5/35++ (IL-6)
C=CC[C@@H]1/C=C(\C)C[C@H](C)C[C@H](OC)[C@H]2O[C@@](O)(C(=O)C(=O)N3CCCC[C@H]3C(=O)O[C@H](/C(C)=C/[C@@H]3CC[C@@H](O)[C@H](OC)C3)[C@H](C)[C@@H](O)CC1=O)[C@H](C)C[C@@H]2OC [tacrolimus] | had to be euthanized | did not prevent | –
anakinra: engineered human IL-1 receptor antagonist (IL-1Ra), recombinant non-glycosylated protein, SEQ ID NO: 1 | – | – | potent agent for suppressing in vivo immune responses
